Values quoted from earlier work as cited in patent US7173016B2, “Composition and method for treating graft-versus-host disease” (Mayne Pharma (USA) Inc., priority 2001, dated 2007).

Conditions: acid-catalyzed glycosidic cleavage

- acid stability: highly acid-labile
Structure (SMILES): OC[C@H]1O[C@@H](n2cnc3c2NC=NC[C@H]3O)C[C@@H]1O [pentostatin, 2′-deoxycoformycin]
